Literature values, collected in patent US4139504A, “Novel nonapeptides, intermediates therefor, and compositions and methods employing said nonapeptides” (priority 1977, dated 1979).

Experiments:
[1] = test system: brain opiate receptor sites
rat = details: injected directly into the brain of the rat

H--Tyr--Gly--Gly--Phe--Met--OH [methionine enkephalin]
binding to partially purified brain opiate receptor sites [1]: binds stereo-specifically | analgesic activity (rat): only weak analgesic agent of short duration
